Laboratory results as given in PubChem BioAssay (NCI).
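Grown in 96-well plates, cells were treated for 48 hours with each compound at five concentrations. Insufficient inhibition: endpoint recorded as highest concentration tested. At the TGI there is no net growth.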

How the values were obtained:
Assay in all cases: NCI anticancer screen, dose series, 48 h
786-0 renal = tested on: 786-0 renal
A498 renal = tested on: A498 renal
A549 NSCLC = tested on: A549 NSCLC
ACHN renal = tested on: ACHN renal
BT-549 breast = tested on: BT-549 breast
CAKI-1 renal = tested on: CAKI-1 renal
CCRF-CEM leukemia = tested on: CCRF-CEM leukemia
COLO 205 colon = tested on: COLO 205 colon
DU-145 prostate = tested on: DU-145 prostate
EKVX NSCLC = tested on: EKVX NSCLC
HCT-116 colon = tested on: HCT-116 colon
HCT-15 colon = tested on: HCT-15 colon
HL-60(TB) leukemia = tested on: HL-60(TB) leukemia
HOP-62 NSCLC = tested on: HOP-62 NSCLC
HOP-92 NSCLC = tested on: HOP-92 NSCLC
HS 578T breast = tested on: HS 578T breast
HT29 colon = tested on: HT29 colon
IGROV1 ovarian = tested on: IGROV1 ovarian
K-562 leukemia = tested on: K-562 leukemia
KM12 colon = tested on: KM12 colon
LOX IMVI melanoma = tested on: LOX IMVI melanoma
M14 melanoma = tested on: M14 melanoma
MCF7 breast = tested on: MCF7 breast
MDA-MB-231 breast = tested on: MDA-MB-231 breast
MDA-MB-435 = tested on: MDA-MB-435
MDA-N = tested on: MDA-N
MOLT-4 leukemia = tested on: MOLT-4 leukemia
NCI-H226 lung = tested on: NCI-H226 lung
NCI-H23 lung = tested on: NCI-H23 lung
NCI-H460 lung = tested on: NCI-H460 lung
NCI/ADR-RES ovarian = tested on: NCI/ADR-RES ovarian
OVCAR-3 ovarian = tested on: OVCAR-3 ovarian
OVCAR-5 ovarian = tested on: OVCAR-5 ovarian
OVCAR-8 ovarian = tested on: OVCAR-8 ovarian
PC-3 prostate = tested on: PC-3 prostate
RPMI-8226 leukemia = tested on: RPMI-8226 leukemia
SF-268 CNS = tested on: SF-268 CNS
SF-295 CNS = tested on: SF-295 CNS
SF-539 CNS = tested on: SF-539 CNS
SK-MEL-2 melanoma = tested on: SK-MEL-2 melanoma
SK-MEL-28 melanoma = tested on: SK-MEL-28 melanoma
SK-MEL-5 melanoma = tested on: SK-MEL-5 melanoma
SK-OV-3 ovarian = tested on: SK-OV-3 ovarian
SN12C renal = tested on: SN12C renal
SNB-19 CNS = tested on: SNB-19 CNS
SNB-75 CNS = tested on: SNB-75 CNS
SR leukemia = tested on: SR leukemia
SW-620 colon = tested on: SW-620 colon
T-47D breast = tested on: T-47D breast
TK-10 renal = tested on: TK-10 renal
U251 CNS = tested on: U251 CNS
UACC-257 melanoma = tested on: UACC-257 melanoma
UACC-62 melanoma = tested on: UACC-62 melanoma
UO-31 renal = tested on: UO-31 renal
MALME-3M melanoma = tested on: MALME-3M melanoma
OVCAR-4 ovarian = tested on: OVCAR-4 ovarian
RXF 393 renal = tested on: RXF 393 renal

CC(=O)/C(N=Nc1ccc(-n2c(C)nc3ccccc3c2=O)cc1)=C(/C)O
TGI (786-0 renal): > 100 µM | TGI (A498 renal): > 100 µM | TGI (A549 NSCLC): > 100 µM | TGI (ACHN renal): > 100 µM | TGI (BT-549 breast): > 100 µM | TGI (CAKI-1 renal): > 100 µM | TGI (CCRF-CEM leukemia): > 100 µM | TGI (COLO 205 colon): > 100 µM | TGI (DU-145 prostate): > 100 µM | TGI (EKVX NSCLC): > 100 µM | TGI (HCT-116 colon): > 100 µM | TGI (HCT-15 colon): > 100 µM | TGI (HL-60(TB) leukemia): > 100 µM | TGI (HOP-62 NSCLC): > 100 µM | TGI (HOP-92 NSCLC): > 100 µM | TGI (HS 578T breast): > 100 µM | TGI (HT29 colon): > 100 µM | TGI (IGROV1 ovarian): > 100 µM | TGI (K-562 leukemia): > 100 µM | TGI (KM12 colon): > 100 µM | TGI (LOX IMVI melanoma): > 100 µM | TGI (M14 melanoma): > 100 µM | TGI (MCF7 breast): > 100 µM | TGI (MDA-MB-231 breast): > 100 µM | TGI (MDA-MB-435): > 100 µM | TGI (MDA-N): > 100 µM | TGI (MOLT-4 leukemia): > 100 µM | TGI (NCI-H226 lung): > 100 µM | TGI (NCI-H23 lung): > 100 µM | TGI (NCI-H460 lung): > 100 µM | TGI (NCI/ADR-RES ovarian): > 100 µM | TGI (OVCAR-3 ovarian): > 100 µM | TGI (OVCAR-5 ovarian): > 100 µM | TGI (OVCAR-8 ovarian): > 100 µM | TGI (PC-3 prostate): > 100 µM | TGI (RPMI-8226 leukemia): > 100 µM | TGI (SF-268 CNS): > 100 µM | TGI (SF-295 CNS): > 100 µM | TGI (SF-539 CNS): > 100 µM | TGI (SK-MEL-2 melanoma): > 100 µM | TGI (SK-MEL-28 melanoma): > 100 µM | TGI (SK-MEL-5 melanoma): > 100 µM | TGI (SK-OV-3 ovarian): > 100 µM | TGI (SN12C renal): > 100 µM | TGI (SNB-19 CNS): > 100 µM | TGI (SNB-75 CNS): > 100 µM | TGI (SR leukemia): > 100 µM | TGI (SW-620 colon): > 100 µM | TGI (T-47D breast): > 100 µM | TGI (TK-10 renal): > 100 µM | TGI (U251 CNS): > 100 µM | TGI (UACC-257 melanoma): > 100 µM | TGI (UACC-62 melanoma): > 100 µM | TGI (UO-31 renal): > 100 µM

NCCN1C(=O)c2cc(Cl)c(Cl)cc2C1(O)c1ccc(Cl)cc1 (stereo not given)
TGI (786-0 renal): 2.96 µM | TGI (A498 renal): 10.2 µM | TGI (A549 NSCLC): 4.76 µM | TGI (ACHN renal): 4.75 µM | TGI (BT-549 breast): 13.4 µM | TGI (CAKI-1 renal): 7.02 µM | TGI (CCRF-CEM leukemia): 10.1 µM | TGI (COLO 205 colon): 3.02 µM | TGI (DU-145 prostate): 6.81 µM | TGI (EKVX NSCLC): 6.75 µM | TGI (HCT-116 colon): 3.09 µM | TGI (HCT-15 colon): 5.33 µM | TGI (HL-60(TB) leukemia): 3.44 µM | TGI (HOP-62 NSCLC): 4.21 µM | TGI (HOP-92 NSCLC): 12.5 µM | TGI (HS 578T breast): 8.44 µM | TGI (HT29 colon): 3.81 µM | TGI (IGROV1 ovarian): 4.89 µM | TGI (K-562 leukemia): 4.09 µM | TGI (KM12 colon): 4.17 µM | TGI (LOX IMVI melanoma): 3.28 µM | TGI (M14 melanoma): 3.23 µM | TGI (MALME-3M melanoma): 3.49 µM | TGI (MCF7 breast): 3.73 µM | TGI (MDA-MB-231 breast): 3.75 µM | TGI (MDA-MB-435): 3.13 µM | TGI (MDA-N): 3.47 µM | TGI (MOLT-4 leukemia): 5.28 µM | TGI (NCI-H23 lung): 6.78 µM | TGI (NCI-H460 lung): 3.64 µM | TGI (NCI/ADR-RES ovarian): 7.25 µM | TGI (OVCAR-3 ovarian): 4.74 µM | TGI (OVCAR-4 ovarian): 4.24 µM | TGI (OVCAR-5 ovarian): 12.2 µM | TGI (OVCAR-8 ovarian): 3.92 µM | TGI (PC-3 prostate): 19.3 µM | TGI (RPMI-8226 leukemia): 5.39 µM | TGI (RXF 393 renal): 3.06 µM | TGI (SF-268 CNS): 6.65 µM | TGI (SF-295 CNS): 3.9 µM | TGI (SF-539 CNS): 3.1 µM | TGI (SK-MEL-2 melanoma): 3.63 µM | TGI (SK-MEL-28 melanoma): 3.21 µM | TGI (SK-MEL-5 melanoma): 2.99 µM | TGI (SK-OV-3 ovarian): 26.3 µM | TGI (SN12C renal): 13.4 µM | TGI (SNB-19 CNS): 7.73 µM | TGI (SNB-75 CNS): 8.26 µM | TGI (SR leukemia): 3.96 µM | TGI (SW-620 colon): 3.7 µM | TGI (T-47D breast): 4.55 µM | TGI (TK-10 renal): 3.53 µM | TGI (U251 CNS): 3.17 µM | TGI (UACC-257 melanoma): 3.47 µM | TGI (UACC-62 melanoma): 3.25 µM | TGI (UO-31 renal): 17.2 µM
